This passage reports inhibition, IC50 and Ki results from US8552005B2, “(EN) 3-sulfonyl-pyrazolo[1,5-a] pyrimidines / antagonists of serotonin 5-HT6 receptors, methods for the production and the use thereof” (Avincuro Pharmaceuticals, Inc., priority 2008, dated 2013).

The target in experiment [1] is T1, 5-HT6 receptor (Homo sapiens (Human), UniProt P50406). As to the kind of experiment: Antagonistic activity towards 5-HT6 receptors: inhibition of serotonin-induced intracellular cAMP (LANCE cAMP) in HEK 293 cells. The format is cell-based. As to conditions: for inhibition at 10 µM: HEK293, read-out: % inhibition of 5-HT6 receptors (I, %), 10 μM solutions, serotonin-induced cAMP; for IC50: serotonin-stimulated intracellular cAMP production, read-out: IC50 in the setting of functional assay. The procedure:
Determination of antagonistic activity of compounds of general formula 1 towards 5-HT6 receptors. Compounds of general formula 1 were tested for their ability to prevent 5-HT6 receptor activation by serotonin. HEK 293 cells (cells of human embryo's kidney) with artificially expressed 5-HT6 receptor, activation of which by serotonin leads to increasing the concentration of intracellular cAMP were used. The content of intracellular cAMP was determined using reagent kit LANCE cAMP (PerkinElmer) according to the method described by the manufacturer of the kit [http://las.perkinelmer.com/content/Manuals/MAN_LANCEcAMP384KitUser.pdf].
Effectiveness of compounds was estimated by their ability to reduce the content of intracellular cAMP induced by serotonin.
(In general: In TR-FRET formats the signal depends on donor and acceptor labels being close together.)

Experiment [2] addresses T1, 5-HT6 receptor. As to the kind of experiment: Competitive radioligand binding ([3H] Lysergic acid diethylamide) to serotonin 5-HT6 receptors, HeLa cell membranes. The following applies: 1.5 nM [3H] Lysergic acid diethylamide, 120 min at 37° C.; for IC50: read-out: IC50 in the setting of competitive binding; for Ki: read-out: Ki in the setting of competitive binding. The procedure:
Determination of activity of serotonin 5-HT6 receptor antagonists of the general formula 1 in the setting of competitive binding to serotonin 5-HT6 receptors.
Screening of disclosed compounds for their potential ability to interact with serotonin 5-HT6 receptor was carried out by method of radioligand binding. For this purpose membrane species were prepared from expressing recombinant human 5-HT6 receptor HeLa cells by means of their homogenization in glass homogenizer with subsequent separation of plasmatic membranes from cell nucli, mitochondria's and cell wreckages by differential centrifugation. […] Mol. Pharmacol. 43:320-327, 1993]. […] After incubation the samples were filtered in vacuo on glass-microfiber filters G/F (Millipor, USA), filters were washed three times with cold solution of medium and radioactivity was measured by scintillation counter MicroBeta 340 (PerkinElmer, USA). […] Binding of tested compounds to the receptor was determined by their ability to displace the radioligand and expressed in percent of displacement. The percent of displacement was calculated according to the following equation:
[formula] wherein: TA—was overall radioactivity in the presence of radioligand only, CA—was radioactivity in the presence of radioligand and tested compound and NA—was radioactivity in the presence of radioligand and Serotonin (5 μM).

The term inhibition denotes the drop in the measured response relative to a control, in per cent. For orientation: IC50 means the concentration needed to halve the response being measured. What is called Ki is the dissociation constant of the complex between target and ligand, obtained from inhibition or displacement.

Where only a bound is given, the exact number is not on record here.

T1 sequence (P50406 whole entry): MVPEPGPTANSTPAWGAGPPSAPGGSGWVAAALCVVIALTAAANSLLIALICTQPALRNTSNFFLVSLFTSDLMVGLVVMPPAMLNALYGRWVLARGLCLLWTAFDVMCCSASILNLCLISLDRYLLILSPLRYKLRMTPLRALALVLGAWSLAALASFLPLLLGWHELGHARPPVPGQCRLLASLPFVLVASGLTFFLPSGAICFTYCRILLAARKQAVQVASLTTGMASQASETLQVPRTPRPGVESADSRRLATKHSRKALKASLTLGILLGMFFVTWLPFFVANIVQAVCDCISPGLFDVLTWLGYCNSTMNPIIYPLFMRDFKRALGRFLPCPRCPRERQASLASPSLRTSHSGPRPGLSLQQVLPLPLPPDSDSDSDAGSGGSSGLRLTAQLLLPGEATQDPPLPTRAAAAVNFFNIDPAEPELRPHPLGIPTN

Take `CSc1nn2c(-c3ccccc3)cc(C)nc2c1S(=O)(=O)c1ccccc1` [1(1)]: the inhibition at 10 µM at 5-HT6 receptor [1] stood at 88%.

For `Cc1cc(C)n2nc(C)c(S(=O)(=O)c3ccncc3)c2n1` [1(2)], at 5-HT6 receptor [1], the inhibition at 10 µM came out at 77%.

Consider `Cc1cc(C)n2nc(C)c(S(=O)(=O)c3cccnc3)c2n1` [1(3)], for which, at 5-HT6 receptor [1], the inhibition at 10 µM amounted to 78%.

For `Cc1cc(C)n2nc(C)c(S(=O)(=O)c3cccs3)c2n1` [1(4)], on 5-HT6 receptor [1], the inhibition at 10 µM is 69%.

In the case of `CSc1nn2c(C)cc(-c3ccccc3)nc2c1S(=O)(=O)c1ccccc1` [1(5)], the inhibition at 10 µM at 5-HT6 receptor [1] was found to be 68%.

`Cc1cc(C)n2ncc(S(=O)(=O)c3ccccc3)c2n1` [1.1(1), 5,7-dimethyl-3-(phenylsulfonyl)pyrazolo[1,5-a]pyrimidine]: on 5-HT6 receptor [1], the inhibition at 10 µM was 78% and the half-maximal inhibitory concentration (IC50) is greater than 1000 nM. In addition, at 5-HT6 receptor [2], the 50% inhibitory concentration (IC50) was determined as 510 nM and the Ki was 237 nM.

For `Cc1cc(C)n2nc(OCCO)c(S(=O)(=O)c3ccccc3)c2n1` [1.1(2)], the inhibition at 10 µM on 5-HT6 receptor [1] amounted to 82%. Besides, on 5-HT6 receptor [2], the IC50 was 477 nM and the Ki was 222 nM.

On to `Cc1cc(C)n2nc(OCCO)c(S(=O)(=O)c3ccc(F)cc3)c2n1` [1.1(4)], for which the inhibition at 10 µM at 5-HT6 receptor [1] amounted to 73%.

As to `CSc1nn2c(C)cc(C)nc2c1S(=O)(=O)c1ccccc1` [1.1(5), 5,7-dimethyl-2-methylsulfanyl-3-(phenylsulfonyl)pyrazolo[1,5-a]pyrimidine], on 5-HT6 receptor [1], the inhibition at 10 µM turned out to be 104% and the IC50 amounted to 30 nM. For the same compound, at 5-HT6 receptor [2], the IC50 was 4.61 nM and the Ki worked out at 2.14 nM.

Take `CCSc1nn2c(C)cc(C)nc2c1S(=O)(=O)c1ccccc1` [1.1(6), 5,7-dimethyl-2-ethylsulfanyl-3-(phenylsulfonyl)pyrazolo[1,5-a]pyrimidine]: on 5-HT6 receptor [1], the inhibition at 10 µM is 104% and the IC50 was found to be 50 nM.

`CSc1nn2c(C)cc(C)nc2c1S(=O)(=O)c1ccc(F)cc1` [1.1(7), 5,7-dimethyl-2-methylsulfanyl-3-(4-fluorophenylsulfonyl)pyrazolo[1,5-a]pyrimidine]: on 5-HT6 receptor [1], the inhibition at 10 µM stood at 101% and the IC50 was 112 nM. For the same compound, the IC50 at 5-HT6 receptor [2] was less than 10 nM.

Consider `CCSc1nn2c(C)cc(C)nc2c1S(=O)(=O)c1ccc(F)cc1` [1.1(8), 5,7-dimethyl-2-ethylsulfanyl-3-(4-fluorophenylsulfonyl)pyrazolo[1,5-a]pyrimidine], for which, on 5-HT6 receptor [1], the inhibition at 10 µM was found to be 102%.

Consider `CSc1nn2c(C)cc(C)nc2c1S(=O)(=O)c1cccc(F)c1` [1.1(9), 5,7-dimethyl-2-methylsulfanyl-3-(3-fluorophenylsulfonyl)pyrazolo[1,5-a]pyrimidine], for which, on 5-HT6 receptor [1], the inhibition at 10 µM amounted to 100% and the IC50 turned out to be 25 nM.

Consider `CCSc1nn2c(C)cc(C)nc2c1S(=O)(=O)c1cccc(F)c1` [1.1(10), 5,7-dimethyl-2-ethylsulfanyl-3-(3-fluorophenylsulfonyl)pyrazolo[1,5-a]pyrimidine], for which the inhibition at 10 µM on 5-HT6 receptor [1] came out at 103%.

As to `CSc1nn2c(C)cc(C)nc2c1S(=O)(=O)c1cccc(Cl)c1` [1.1(11), 5,7-dimethyl-2-methylsulfanyl-3-(3-chlorophenylsulfonyl)pyrazolo[1,5-a]pyrimidine], on 5-HT6 receptor [1], the inhibition at 10 µM is 101% and the IC50 is 20 nM.

With `CCSc1nn2c(C)cc(C)nc2c1S(=O)(=O)c1cccc(Cl)c1` [1.1(12), 5,7-dimethyl-2-ethylsulfanyl-3-(3-chlorophenylsulfonyl)pyrazolo[1,5-a]pyrimidine], the inhibition at 10 µM at 5-HT6 receptor [1] is 101%.

Consider `Cc1cc(C)n2nc(C)c(S(=O)(=O)c3ccccc3)c2n1` [1.1(13)], for which the inhibition at 10 µM on 5-HT6 receptor [1] came out at 86%. For the same compound, at 5-HT6 receptor [2], the IC50 was 147 nM and the Ki came to 68.4 nM.

In the case of `Cc1cc(C)n2nc(C)c(S(=O)(=O)c3cccc(F)c3)c2n1` [1.1(14)], the inhibition at 10 µM on 5-HT6 receptor [1] turned out to be 88%.

Take `CCSc1nn2c(C)cc(C)nc2c1S(=O)(=O)c1ccc(C)cc1` [1.1(15)]: at 5-HT6 receptor [1], the inhibition at 10 µM stood at 99% and the IC50 is 80 nM.

For the compound `CSc1nn2c(C)cc(C)nc2c1S(=O)(=O)c1ccc(Cl)cc1` [1.1(16)], on 5-HT6 receptor [1], the inhibition at 10 µM is 94% and the IC50 came out at 230 nM.

For the compound `COc1ccc(S(=O)(=O)c2c(SC)nn3c(C)cc(C)nc23)cc1` [1.1(17)], on 5-HT6 receptor [1], the inhibition at 10 µM stood at 65.4% and the IC50 came out at 440 nM.

Regarding `CCSc1nn2c(C)cc(C)nc2c1S(=O)(=O)c1ccc(OC)cc1` [1.1(18)], at 5-HT6 receptor [1], the inhibition at 10 µM amounted to 61% and the IC50 came to 320 nM.

Take `CSc1nn2c(C)cc(C)nc2c1S(=O)(=O)c1ccc(N(C)C)cc1` [1.1(19)]: the inhibition at 10 µM on 5-HT6 receptor [1] came out at 87%.

In the case of `CSc1nn2c(C)cc(C)nc2c1S(=O)(=O)c1ccc(F)c(Cl)c1` [1.1(20)], the inhibition at 10 µM on 5-HT6 receptor [1] worked out at 100%.

Take `Cc1cc(C)n2nc(C)c(S(=O)(=O)c3ccc(F)cc3)c2n1` [1.1(21)]: the inhibition at 10 µM on 5-HT6 receptor [1] came out at 78%.

With `Cc1cc(C)n2nc(OCCN(C)C)c(S(=O)(=O)c3ccccc3)c2n1` [1.1(22)], the inhibition at 10 µM on 5-HT6 receptor [1] stood at 66%.
